Measured values: patent publication US20080200405A1, “Drug Resistance Reversal In Neoplastic Disease” (priority 2007, published 2008)

Tests used:
[1] = tested on: TNFα; assay: Measurement of LPS Induced-TNFα in THP-1 Cells; format: cell-based, human; conditions: compound 10 uM, 5 ng/mL LPS
[2] = tested on: Angiogenesis in CAM; assay: Neovascularization on the CAM (Inhibition of Angiogenesis in CAM); format: in vivo, chicken; conditions: 30 ug
Procedure: In vivo neovascularization was examined by the method previously described by Auerbach et al. (J. Dev. Biol. 41:391-394 (1974)). Ten-day old chicken embryos were purchased from Spafas, Inc. (Preston, Conn.) and were incubated at 37° C. with 55% relative humidity. In the dark, with the aid of a candling lamp, a small hole was punctured in the shell concealing the air sac with a hypodermic needle. A second hole was punctured in the shell on the broadside of the egg directly over an […] portion of the embryonic membrane, as observed during candling. An artificial air sac was created beneath the second hole by applying gentle vacuum to the first hole using a small rubber squeeze bulb. The vacuum caused the chorioallantoic membrane (CAM) to separate from the shell. A window, approximately 1.0 cm^2, was cut in the shell over the dropped CAM with the use of a small crafts grinding wheel (Dremel, Division of Emerson Electric Company Racine, Wis.). The window allowed direct access to the underlying CAM. A pro-angiogenic agent was added to induce new blood vessel branches on the CAM of 10-day old embryos. […] Louis, Mo.) in a solution (95% ethanol and water). The disks were subsequently air dried under sterile conditions. The disks were then suspended in PBS (Phosphate Buffered Saline) and placed on growing CAMs. […] For inducing angiogenesis, sterile filter disks were saturated with bFGF (1 μg/ml) (Life Technologies, Gaithersburg, Md.) or other pro-angiogenesis factors and control disks were saturated with PBS without Calcium and Magnesium. Control disks were saturated with PBS without Calcium and Magnesium. Using sterile forceps one filter/CAM was placed from the window. The window was sealed with Highland brand transparent tape. After 24-48 hr, 10-25 ul of test agent was injected intravenously or added topically into the CAM membrane. Eight-Ten eggs/treatment group were used. CAM tissue directly beneath filter disk was harvested from embryos treated 48 hours prior with compound or control. Tissues were washed three times with PBS. Sections were placed in a 35-mm petri dish (Nalge Nunc, Rochester, N.Y.) and examined under a SV6 stereomicroscope (Karl Zeiss, Thornwood, N.Y.) at 50× magnification. […] Digital images of CAM sections from Petri dish were collected using a 3-CCD color video camera system (Toshiba America, New York, N.Y.). These images were analyzed using Image-Pro Plus software (Media Cybernetics, Silver Spring, Md.). The number of branch points in blood vessels within the circular region superimposed to the area of a filter disk was counted for each section. […] Tissues were washed three times with PBS. Sections were placed in a 35-mm Petri dish (Nalge Nunc; Rochester, N.Y.) and were examined under a SV6 stereomicroscope (Karl Zeiss; Thornwood, N.Y.) at 50× magnification. Digital images of CAM sections adjacent to filters were collected using a 3-CCD color video camera system (Toshiba America; New York, N.Y.) and analyzed with the Image-Pro Plus software (Media Cybernetics; Silver Spring, Md.). The number of vessel branch points contained in a circular region equal to the area of a filter disk was counted for each section. Percent inhibition data are expressed as the quotient of the experimental value minus the negative control value divided by the difference between the positive control value and the negative control value. One image was counted in each CAM preparation, and findings from eight CAM preparations were analyzed for each treatment condition. In addition, each experiment was performed three times. The resulting angiogenesis index is the mean ±SEM (Standard Error of Measurement) of new branch points in each set of treatment. Statistical analysis of blood vessel branching patterns are performed by 1-way analysis of variance (ANOVA) comparing experimental with corresponding control groups.

[3] = In vitro stability of OT-551 in dog plasma; format: in vitro ADME
Procedure: (§1) The active metabolite of OT-551 (Cyclopropanecarboxylic acid 1-hydroxy-2,2,6,6-tetramethyl-piperidin-4-yl ester) is TP-H. The objective of this analysis was to determine the in vitro half-life of OT-551 in rat, rabbit, dog, and human plasma under standardized incubation conditions.
(§2) OT-551 was incubated with pooled rat, rabbit, dog, and human plasma for various times under standardized incubation conditions. Pre-labeled tubes containing pooled plasma from rats, rabbits, dogs, and humans were pre-incubated in a shaking 37° C. water bath. A OT-551 solution was added to the tubes at a final concentration of 1000 ng/mL. Time zero samples (n=5) were immediately removed and transferred into tubes containing a stabilizer solution (DTPA, acetylcysteine and ascorbic acid), the LC/MS/MS assay internal standard and methanol. […] The tubes were vortexed, placed on ice, followed by centrifugation. One hundred-μL aliquots of the supernatant were transferred into HPLC sample vials. Additional tubes (n=5 at each time point) were incubated for 5, 10, 20, 30, 60, 120, and 240 minutes at 37° C. and thereafter processed. The amount of OT-551 and TP-H in each incubated sample was quantified using validated LC/MS/MS assays.

[4] = In vitro stability of OT-551 in rat plasma; format: in vitro ADME
Procedure: as §1, §2

[5] = tested on: drug sensitive and resistant cell lines SKN-SH, Neuro2A, Saos2, HL-60; assay: Reversal of drug resistance in various cancer types (OT-551 with or without doxorubicin); format: cell-based, human, murine; conditions: in combination with doxorubicin; 96 hours
Procedure: This example illustrates that OT-551 and analogs reverse drug resistance to non-anthracycline drugs in various cancer types. The effects of analogs were tested on drug sensitive and resistant (R) cell lines corresponding to various cancer types, including the human neuroblastoma cell line SKN-SH (ATCC Cat. No. HTB-1), the murine neuroblastoma cell line Neuro2A (ATCC Cat. No. CCL-131), the osteosarcoma cells Saos2 (ATCC Cat. No. HTB-85) and the leukemia cell line HL-60 (ATCC Cat. No. CCL240). The cells were treated with OT-551 with or without doxorubicin as described above. Cell viability was calculated after 96 hours of incubation with the drug combination.

## CC1(C)CC(OC(=O)C2CC2)CC(C)(C)N1O.Cl [OT-551, 1-hydroxy-4-cyclopropanecarbonyloxy-2,2,6,6-tetramethylpiperidine hydrochloride]
[1]; Homo sapiens, THP-1, read-out: Mean Percent Inhibition of TNF-alpha using 5 ng/mL LPS
  inhibition at 10 µM: 68 ± 6%
[2]; listed as OT-551 HCl, hydrochloride
  Inhibition of Angiogenesis in CAM, % Inhibition: 74 ± 4%
[2]; Gallus gallus
  inhibition in vivo at 0.03 mg: 75.2 ± 9.7%
[3]; incubation time 0 min
  Concentrations (ng/mL) of OT-551 in Dog Plasma: 771.12 ± 21.68 ng/mL
[3]; incubation time 5 min
  Concentrations (ng/mL) of OT-551 in Dog Plasma: 804.93 ± 17.45 ng/mL
[3]; incubation time 10 min
  Concentrations (ng/mL) of OT-551 in Dog Plasma: 811.14 ± 21.06 ng/mL
[3]; incubation time 20 min
  Concentrations (ng/mL) of OT-551 in Dog Plasma: 809.01 ± 18.58 ng/mL
[3]; incubation time 30 min
  Concentrations (ng/mL) of OT-551 in Dog Plasma: 789.53 ± 13.73 ng/mL
[3]; incubation time 60 min
  Concentrations (ng/mL) of OT-551 in Dog Plasma: 717.22 ± 25.73 ng/mL
[3]; incubation time 120 min
  Concentrations (ng/mL) of OT-551 in Dog Plasma: 608.14 ± 25.96 ng/mL
[3]; incubation time 240 min
  Concentrations (ng/mL) of OT-551 in Dog Plasma: 428.20 ± 12.03 ng/mL
[4]; incubation time 0 min
  Concentrations (ng/mL) of OT-551 in Rat Plasma: 806.50 ± 86.77 ng/mL
[4]; incubation time 5 min
  Concentrations (ng/mL) of OT-551 in Rat Plasma: 770.32 ± 20.66 ng/mL
[4]; incubation time 10 min
  Concentrations (ng/mL) of OT-551 in Rat Plasma: 745.77 ± 15.50 ng/mL
[4]; incubation time 20 min
  Concentrations (ng/mL) of OT-551 in Rat Plasma: 682.88 ± 16.94 ng/mL
[4]; incubation time 30 min
  Concentrations (ng/mL) of OT-551 in Rat Plasma: 613.79 ± 25.84 ng/mL
[4]; incubation time 60 min
  Concentrations (ng/mL) of OT-551 in Rat Plasma: 480.48 ± 10.69 ng/mL
[4]; incubation time 120 min
  Concentrations (ng/mL) of OT-551 in Rat Plasma: 277.94 ± 5.55 ng/mL
[4]; incubation time 240 min
  Concentrations (ng/mL) of OT-551 in Rat Plasma: 80.70 ± 2.02 ng/mL
[5]
  effect on doxorubicin toxicity: able to enhance doxorubicin toxicity in all the drug resistant cell lines tested

## CC1(C)CC(O)CC(C)(C)N1O [TEMPOL-H]
[1]
  Mean Percent Inhibition of TNF-alpha using 5 ng/mL LPS: 74 ± 8%
[2]
  Inhibition of Angiogenesis in CAM, % Inhibition: 43 ± 10%
[3]; OT-551 incubation time 0 min
  Concentrations (ng/mL) of TP-H in Dog Plasma: 0.00 ± 0.00 ng/mL
[3]; OT-551 incubation time 5 min
  Concentrations (ng/mL) of TP-H in Dog Plasma: 5.85 ± 0.73 ng/mL
[3]; OT-551 incubation time 10 min
  Concentrations (ng/mL) of TP-H in Dog Plasma: 8.77 ± 0.65 ng/mL
[3]; OT-551 incubation time 20 min
  Concentrations (ng/mL) of TP-H in Dog Plasma: 12.79 ± 0.74 ng/mL
[3]; OT-551 incubation time 30 min
  Concentrations (ng/mL) of TP-H in Dog Plasma: 16.22 ± 0.67 ng/mL
[3]; OT-551 incubation time 60 min
  Concentrations (ng/mL) of TP-H in Dog Plasma: 25.68 ± 1.04 ng/mL
[3]; OT-551 incubation time 120 min
  Concentrations (ng/mL) of TP-H in Dog Plasma: 39.31 ± 1.09 ng/mL
[3]; OT-551 incubation time 240 min
  Concentrations (ng/mL) of TP-H in Dog Plasma: 53.92 ± 1.68 ng/mL
[4]; OT-551 incubation time 0 min
  Concentrations (ng/mL) of TP-H in Rat Plasma: 10.23 ± 1.59 ng/mL
[4]; OT-551 incubation time 5 min
  Concentrations (ng/mL) of TP-H in Rat Plasma: 30.47 ± 1.65 ng/mL
[4]; OT-551 incubation time 10 min
  Concentrations (ng/mL) of TP-H in Rat Plasma: 50.91 ± 2.11 ng/mL
[4]; OT-551 incubation time 20 min
  Concentrations (ng/mL) of TP-H in Rat Plasma: 86.30 ± 3.30 ng/mL
[4]; OT-551 incubation time 30 min
  Concentrations (ng/mL) of TP-H in Rat Plasma: 119.63 ± 7.08 ng/mL
[4]; OT-551 incubation time 60 min
  Concentrations (ng/mL) of TP-H in Rat Plasma: 201.94 ± 4.19 ng/mL
[4]; OT-551 incubation time 120 min
  Concentrations (ng/mL) of TP-H in Rat Plasma: 304.66 ± 7.27 ng/mL
[4]; OT-551 incubation time 240 min
  Concentrations (ng/mL) of TP-H in Rat Plasma: 362.66 ± 7.50 ng/mL
